Tests used:
[1] = system: Symmetric Di-methyl Arginine (SDMA) signal (PRMT5 inhibition) in HCT116 MTAP-deleted cells; assay: Symmetric di-methyl arginine image-based high content screen assay (SDMA assay), HCT116 MTAP-deleted; format: cell-based; conditions: for EC50 selectivity: HCT116 WT vs HCT116 MTAP-deleted; for EC50: Homo sapiens, HCT-116, HCT116 MTAP-deleted, class symbols
Outline: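 Read-out is imaging of per-cell mean SDMA immunofluorescence (Alexa 488), with cells segmented by DAPI. Cells, MTAP-deleted or wild-type HCT116, were exposed to compound for 3 days at 37 °C before fixation. EC50 derived by 4-parameter non-linear logistic regression.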

[2] = system: HCT116 MTAP-deleted cell lines; assay: Cell viability assay (CellTiter-Glo, 7 days), HCT116 MTAP-deleted; format: cell-based; conditions: Homo sapiens, HCT-116; cell viability assay, HCT116 MTAP-deleted; class symbols; read-out: CC50
Outline: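 Read-out was CellTiter-Glo luminescence after a 7-day incubation (37 °C, 5% CO2) of HCT116 cells, MTAP-deleted or WT, on dose-response compound plates. CC50 values come from each line; where marked *, selectivity is overstated because poor solubility impaired the WT CC50 measurement.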

**Q.** What does the source list for `Cc1ncc2c(N)nc3ccc(C(=O)N4C[C@@H](F)C[C@@H]5Oc6cc(C(F)(F)F)ccc6[C@@H]54)cc3n12` [Ff-660, (4-amino-1-methylimidazo[1,5-a]quinoxalin-8-yl)((3S,4aS,9bS)-3-fluoro-7-(trifluoromethyl)-3,4,4a,9b-tetrahydrobenzofuro[3,2-b]pyridin-1(2H)-yl)methanone]?
**A.** EC50 selectivity [1]: 122; EC50 [1]: ≤ 1 nM; CC50 [2]: < 100 nM

**Q.** `Nc1nc2cc(F)c(C(=O)N3CCC[C@@H]4Oc5cc(-c6cnn(C(F)F)c6)ccc5[C@@H]43)cc2n2cncc12` [Ff-661, (4-amino-7-fluoroimidazo[1,5-a]quinoxalin-8-yl)((4aS,9bS)-7-(1-(difluoromethyl)-1H-pyrazol-4-yl)-3,4,4a,9b-tetrahydrobenzofuro[3,2-b]pyridin-1(2H)-yl)methanone] was tested. Which EC50 selectivity [1] did it give?
**A.** 147

**Q.** What about the EC50 [1] of the same compound?
**A.** ≤ 1 nM

**Q.** And the CC50 [2]?
**A.** < 100 nM

**Q.** Which results are given for `[2H]C([2H])([2H])c1ncn2c1c(N)nc1cnc(C(=O)N3CCC[C@@H]4Oc5cc(C(F)(F)F)ccc5[C@@H]43)cc12` [Ff-662, (4-amino-3-(methyl-d3)imidazo[1,5-a]pyrido[3,4-e]pyrazin-8-yl)((4aS,9bS)-7-(trifluoromethyl)-3,4,4a,9b-tetrahydrobenzofuro[3,2-b]pyridin-1(2H)-yl)methanone]?
**A.** EC50 selectivity [1]: 70; EC50 [1]: 1 to 5 nM; CC50 [2]: < 100 nM

**Q.** For `Nc1nc2cc(F)c(C(=O)N3CCC[C@@H]4Oc5cc(S(F)(F)(F)(F)F)ccc5[C@@H]43)cc2n2cncc12` [Ff-663, (4-amino-7-fluoroimidazo[1,5-a]quinoxalin-8-yl)((4aS,9bS)-7-(pentafluoro-16-sulfaneyl)-3,4,4a,9b-tetrahydrobenzofuro[3,2-b]pyridin-1(2H)-yl)methanone], which EC50 selectivity [1] is on record?
**A.** 23

**Q.** What about the EC50 [1] of the same compound?
**A.** ≤ 1 nM

**Q.** And the CC50 [2]?
**A.** < 100 nM

**Q.** What does the source list for `Nc1nc2ccc(C(=O)N3CCC[C@@H]4Oc5cc(S(F)(F)(F)(F)F)ccc5[C@@H]43)cc2n2cncc12` [Ff-664, (4-aminoimidazo[1,5-a]quinoxalin-8-yl)((4aS,9bS)-7-(pentafluoro-16-sulfaneyl)-3,4,4a,9b-tetrahydrobenzofuro[3,2-b]pyridin-1(2H)-yl)methanone]?
**A.** EC50 selectivity [1]: 79; EC50 [1]: ≤ 1 nM; CC50 [2]: < 100 nM

**Q.** With `Cc1ncn2c1c(N)nc1cnc(C(=O)N3CCC[C@@H]4Oc5cc(S(F)(F)(F)(F)F)ccc5[C@@H]43)cc12` [Ff-665, (4-amino-3-methylimidazo[1,5-a]pyrido[3,4-e]pyrazin-8-yl)((4aS,9bS)-7-(pentafluoro-16-sulfaneyl)-3,4,4a,9b-tetrahydrobenzofuro[3,2-b]pyridin-1(2H)-yl)methanone] as the compound, how does the EC50 selectivity [1] read?
**A.** 39

**Q.** And the EC50 [1]?
**A.** ≤ 1 nM

**Q.** What about the CC50 [2] of the same compound?
**A.** < 100 nM

**Q.** `Nc1nc2ccc(C(=O)N3C[C@@H](F)C[C@@H]4Oc5cc(OC(F)(F)F)ccc5[C@@H]43)cc2n2cncc12` [Ff-667, (4-aminoimidazo[1,5-a]quinoxalin-8-yl)((3S,4aS,9bS)-3-fluoro-7-(trifluoromethoxy)-3,4,4a,9b-tetrahydrobenzofuro[3,2-b]pyridin-1(2H)-yl)methanone] was tested. Which EC50 selectivity [1] did it give?
**A.** 115

**Q.** And the EC50 [1]?
**A.** ≤ 1 nM

**Q.** What about the CC50 [2] of the same compound?
**A.** < 100 nM

**Q.** What does the source list for `Nc1nc2cc(F)c(C(=O)N3CCC4(CCCc5ccccc54)C3)cc2n2cncc12` (stereo not drawn) [Ff-669, (4-amino-7-fluoroimidazo[1,5-a]quinoxalin-8-yl)(3,4-dihydro-2H-spiro[naphthalene-1,3′-pyrrolidin]-1′-yl)methanone]?
**A.** EC50 selectivity [1]: 485; EC50 [1]: 1 to 5 nM; CC50 [2]: 100 to 1000 nM

**Q.** How did the EC50 selectivity [1] turn out when `CN(C(=O)c1cc2c(cc1F)nc(N)c1cncn12)[C@@H]1COc2cc(C(F)(F)F)ncc21` [Ff-673, (S)-4-amino-7-fluoro-N-methyl-N-(6-(trifluoromethyl)-2,3-dihydrofuro[3,2-c]pyridin-3-yl)imidazo[1,5-a]quinoxaline-8-carboxamide] was run?
**A.** 197

**Q.** And the EC50 [1]?
**A.** 1 to 5 nM

**Q.** What about the CC50 [2] of the same compound?
**A.** < 100 nM

**Q.** With `Cc1cc2nc(N)c3cncn3c2cc1C(=O)N(C)[C@@H]1COc2cc(C(F)(F)F)ccc21` [Ff-674, (S)-4-amino-N,7-dimethyl-N-(6-(trifluoromethyl)-2,3-dihydrobenzofuran-3-yl)imidazo[1,5-a]quinoxaline-8-carboxamide] as the compound, how does the EC50 selectivity [1] read?
**A.** 85

**Q.** And the EC50 [1]?
**A.** ≤ 1 nM

**Q.** And the CC50 [2]?
**A.** < 100 nM

**Q.** With `Nc1nc2ccc(C(=O)N3CCC4(CC4)[C@@H]4Oc5cc(C(F)(F)F)ccc5[C@@H]43)cc2n2cncc12` [Ff-675, (4-aminoimidazo[1,5-a]quinoxalin-8-yl)((4aS,9bS)-7-(trifluoromethyl)-2,3,4a,9b-tetrahydro-1H-spiro[benzofuro[3,2-b]pyridine-4,1′-cyclopropan]-1-yl)methanone] as the compound, how does the EC50 selectivity [1] read?
**A.** 107

**Q.** What about the EC50 [1] of the same compound?
**A.** ≤ 1 nM

**Q.** What about the CC50 [2] of the same compound?
**A.** < 100 nM

**Q.** What does the source list for `Cc1ncn2c1c(N)nc1cnc(C(=O)N3CCC4(CC4)[C@@H]4Oc5cc(C(F)(F)F)ccc5[C@@H]43)cc12` [Ff-678, (4-amino-3-methylimidazo[1,5-a]pyrido[3,4-e]pyrazin-8-yl)((4aS,9bS)-7-(trifluoromethyl)-2,3,4a,9b-tetrahydro-1H-spiro[benzofuro[3,2-b]pyridine-4,1′-cyclopropan]-1-yl)methanone]?
**A.** EC50 selectivity [1]: 263; EC50 [1]: 1 to 5 nM; CC50 [2]: < 100 nM

**Q.** `C[C@H](c1ncccn1)N(Cc1ccc(C(F)(F)F)cn1)C(=O)c1ccc2nc(N)n3cncc3c2c1` [Fg-1, (R)-5-amino-N-(1-(pyrimidin-2-yl)ethyl)-N-((5-(trifluoromethyl)pyridin-2-yl)methyl)imidazo[1,5-c]quinazoline-9-carboxamide] was tested. Which EC50 selectivity [1] did it give?
**A.** 50

**Q.** What about the EC50 [1] of the same compound?
**A.** 1 to 5 nM

**Q.** What about the CC50 [2] of the same compound?
**A.** 100 to 1000 nM

**Q.** Which EC50 selectivity [1] does the source give for `Cc1ncn2c(N)nc3ccc(C(=O)N(Cc4ccc(C(F)(F)F)cn4)[C@H](C)c4ncccn4)cc3c12` [Fg-2, (R)-5-amino-1-methyl-N-(1-(pyrimidin-2-yl)ethyl)-N-((5-(trifluoromethyl)pyridin-2-yl)methyl)imidazo[1,5-c]quinazoline-9-carboxamide] here?
**A.** 39

**Q.** What about the EC50 [1] of the same compound?
**A.** 1 to 5 nM

**Q.** What about the CC50 [2] of the same compound?
**A.** < 100 nM

**Q.** Which results are given for `C[C@H](c1ncccn1)N(Cc1ccc(C(F)(F)F)cn1)C(=O)c1cc2c(cc1Cl)nc(N)n1cncc21` [Fg-3, (R)-5-amino-8-chloro-N-(1-(pyrimidin-2-yl)ethyl)-N-((5-(trifluoromethyl)pyridin-2-yl)methyl)imidazo[1,5-c]quinazoline-9-carboxamide]?
**A.** EC50 selectivity [1]: 16; EC50 [1]: > 5 nM; CC50 [2]: 100 to 1000 nM

**Q.** Which EC50 selectivity [1] does the source give for `C[C@H](c1ncccn1)N(Cc1ccc(C(F)(F)F)cn1)C(=O)c1cc2c(cc1F)nc(N)n1cncc21` [Fg-4, (R)-5-amino-8-fluoro-N-(1-(pyrimidin-2-yl)ethyl)-N-((5-(trifluoromethyl)pyridin-2-yl)methyl)imidazo[1,5-c]quinazoline-9-carboxamide] here?
**A.** 23

**Q.** What about the EC50 [1] of the same compound?
**A.** 1 to 5 nM

**Q.** What about the CC50 [2] of the same compound?
**A.** 100 to 1000 nM

**Q.** With `Cc1ncc2c3cc(C(=O)N(Cc4ccc(C(F)(F)F)cn4)[C@H](C)c4ncccn4)ccc3nc(N)n12` [Fg-5, (R)-5-amino-3-methyl-N-(1-(pyrimidin-2-yl)ethyl)-N-((5-(trifluoromethyl)pyridin-2-yl)methyl)imidazo[1,5-c]quinazoline-9-carboxamide] as the compound, how does the EC50 selectivity [1] read?
**A.** 19

**Q.** What about the EC50 [1] of the same compound?
**A.** 1 to 5 nM

**Q.** What about the CC50 [2] of the same compound?
**A.** < 100 nM

**Q.** `CCN(C(=O)c1ccc2nc(N)c3c(C)ncn3c2c1)[C@@H]1COc2cc(C(F)(F)F)ccc21` [Fg-6, (S)-4-amino-N-ethyl-3-methyl-N-(6-(trifluoromethyl)-2,3-dihydrobenzofuran-3-yl)imidazo[1,5-a]quinoxaline-8-carboxamide] was tested. Which EC50 selectivity [1] did it give?
**A.** 88

**Q.** What about the EC50 [1] of the same compound?
**A.** 1 to 5 nM

**Q.** What about the CC50 [2] of the same compound?
**A.** < 100 nM

**Q.** Which EC50 selectivity [1] does the source give for `Cc1ncn2c1c(N)nc1ccc(C(=O)N(C)[C@@H]3COc4nc(C(F)(F)F)ccc43)cc12` [Fg-7, (S)-4-amino-N,3-dimethyl-N-(6-(trifluoromethyl)-2,3-dihydrofuro[2,3-b]pyridin-3-yl)imidazo[1,5-a]quinoxaline-8-carboxamide] here?
**A.** 496

**Q.** What about the EC50 [1] of the same compound?
**A.** 1 to 5 nM

**Q.** What about the CC50 [2] of the same compound?
**A.** 100 to 1000 nM

**Q.** Which results are given for `CN(C(=O)c1ccc2nc(N)n3cncc3c2c1)[C@@H]1COc2cc(C(F)(F)F)ccc21` [Fg-9, (S)-5-amino-N-methyl-N-(6-(trifluoromethyl)-2,3-dihydrobenzofuran-3-yl)imidazo[1,5-c]quinazoline-9-carboxamide]?
**A.** EC50 selectivity [1]: 255; EC50 [1]: > 5 nM; CC50 [2]: > 1000 nM

**Q.** How did the EC50 selectivity [1] turn out when `Cc1ncc2c3cc(C(=O)N(C)[C@@H]4COc5cc(C(F)(F)F)ccc54)ccc3nc(N)n12` [Fg-10, (S)-5-amino-N,3-dimethyl-N-(6-(trifluoromethyl)-2,3-dihydrobenzofuran-3-yl)imidazo[1,5-c]quinazoline-9-carboxamide] was run?
**A.** 307

**Q.** And the EC50 [1]?
**A.** > 5 nM

**Q.** And the CC50 [2]?
**A.** > 1000 nM

**Q.** How did the EC50 selectivity [1] turn out when `Cc1ncn2c(N)nc3ccc(C(=O)N(C)[C@@H]4COc5cc(C(F)(F)F)ccc54)cc3c12` [Fg-11, (S)-5-amino-N,1-dimethyl-N-(6-(trifluoromethyl)-2,3-dihydrobenzofuran-3-yl)imidazo[1,5-c]quinazoline-9-carboxamide] was run?
**A.** 225

**Q.** What about the EC50 [1] of the same compound?
**A.** > 5 nM

**Q.** What about the CC50 [2] of the same compound?
**A.** 100 to 1000 nM

**Q.** `Cc1ncn2c1c(N)nc1ccc(C(=O)N(C)C3CCc4nc(C(F)(F)F)ccc43)cc12` (stereo not drawn) [Fg-12, 4-amino-N,3-dimethyl-N-(2-(trifluoromethyl)-6,7-dihydro-5H-cyclopenta[b]pyridin-5-yl)imidazo[1,5-a]quinoxaline-8-carboxamide] was tested. Which EC50 selectivity [1] did it give?
**A.** 168

**Q.** What about the EC50 [1] of the same compound?
**A.** ≤ 1 nM

**Q.** What about the CC50 [2] of the same compound?
**A.** < 100 nM

**Q.** `Cc1ncn2c1c(N)nc1ccc(C(=O)N(C)[C@@H]3COCc4cc(Br)ccc43)cc12` [Fg-13, (S)-4-amino-N-(7-bromoisochroman-4-yl)-N,3-dimethylimidazo[1,5-a]quinoxaline-8-carboxamide] was tested. Which EC50 selectivity [1] did it give?
**A.** 207

**Q.** And the EC50 [1]?
**A.** ≤ 1 nM

**Q.** What about the CC50 [2] of the same compound?
**A.** < 100 nM
